Laboratory results reported in ChEMBL document CHEMBL1127876, “Potent imidazole angiotensinII antagonists: acyl sulfonamides and acyl sulfamides as tetrazole replacements” (Bioorg Med Chem Lett, 1994).

Key:
[1] = molecular target: T1, Type-2 angiotensin II receptor (Rattus norvegicus, UniProt P35351); test: In vitro inhibitory activity against angiotensin II (AT2) receptor to displace 125I-Sar,Ile8-AII in rat midbrain
T1 sequence (P35351 whole entry): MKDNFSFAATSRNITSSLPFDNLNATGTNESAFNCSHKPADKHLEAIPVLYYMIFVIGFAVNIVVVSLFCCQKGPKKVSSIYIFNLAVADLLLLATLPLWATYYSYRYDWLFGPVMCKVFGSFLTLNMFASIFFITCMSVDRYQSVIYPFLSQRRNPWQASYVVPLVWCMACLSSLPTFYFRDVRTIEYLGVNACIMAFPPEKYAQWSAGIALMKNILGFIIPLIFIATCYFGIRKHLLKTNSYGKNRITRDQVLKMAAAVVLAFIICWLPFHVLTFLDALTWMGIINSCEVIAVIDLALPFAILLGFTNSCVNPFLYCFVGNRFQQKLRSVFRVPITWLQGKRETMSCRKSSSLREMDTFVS

[2] = molecular target: T2, Type-1 angiotensin II receptor (Oryctolagus cuniculus, UniProt P34976); test: In vitro inhibitory activity against Angiotensin II receptor, type 1 to displace 125I-Sar,Ile8-AII in rabbit aorta; assay type: tissue-based
T2 sequence (P34976 whole entry): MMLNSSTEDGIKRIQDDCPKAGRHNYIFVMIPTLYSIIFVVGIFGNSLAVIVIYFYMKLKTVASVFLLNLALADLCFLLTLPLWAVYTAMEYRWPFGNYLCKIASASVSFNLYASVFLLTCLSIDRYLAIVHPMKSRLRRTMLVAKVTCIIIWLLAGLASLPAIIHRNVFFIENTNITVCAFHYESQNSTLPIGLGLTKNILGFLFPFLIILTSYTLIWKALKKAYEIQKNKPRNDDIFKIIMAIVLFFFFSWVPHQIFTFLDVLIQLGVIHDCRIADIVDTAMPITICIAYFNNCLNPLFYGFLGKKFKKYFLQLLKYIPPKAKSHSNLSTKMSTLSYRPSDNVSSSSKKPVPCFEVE

SMILES	IC50 [1]	IC50 [2]
CCCCc1nc(Cl)c(C(=O)OC)n1Cc1ccc(-c2ccccc2S(=O)(=O)NC(=O)c2ccccc2)cc1	5300 nM	8.8 nM
CCCCc1ncc(C(=O)O)n1Cc1ccc(-c2ccccc2S(=O)(=O)NC(=O)C2CC2)cc1	5800 nM	5.8 nM
CCCCc1ncc(C(=O)O)n1Cc1ccc(-c2ccccc2NS(=O)(=O)NC(=O)c2ccccc2)cc1	> 10000 nM	6 nM
CCCCc1ncc(C(=O)O)n1Cc1ccc(-c2ccccc2S(=O)(=O)NC(=O)c2ccccc2)cc1	4500 nM	6.2 nM
CCCCc1ncc(C(=O)OC)n1Cc1ccc(-c2ccccc2-c2nn[nH]n2)cc1	> 50000 nM	15 nM
CCCc1nc(CC)c(C=O)n1Cc1ccc(-c2ccccc2S(=O)(=O)NC(=O)C2CC2)cc1	2000 nM	12 nM
CCCc1nc(CC)c(C(=O)OC)n1Cc1ccc(-c2ccccc2S(=O)(=O)NC(=O)C2CC2)cc1	2100 nM	2.6 nM
CCCc1nc(CC)c(C=O)n1Cc1ccc(-c2ccccc2S(=O)(=O)NC(=O)c2ccccc2)cc1		2.4 nM
CCCCc1ncc(C(=O)O)n1Cc1ccc(-c2ccccc2-c2nn[nH]n2)cc1	> 50000 nM	2.9 nM
CCCCc1nc(Cl)c(C(=O)O)n1Cc1ccc(-c2ccccc2S(=O)(=O)NC(=O)c2ccccc2)cc1	9500 nM	2 nM
CCCCc1ncc(C(=O)O)n1Cc1ccc(-c2ccccc2NS(=O)(=O)NC(=O)C2CC2)cc1	> 10000 nM	7.4 nM
CCCCc1nc(Cl)c(C(=O)OC)n1Cc1ccc(-c2ccccc2-c2nn[nH]n2)cc1	> 50000 nM	13 nM
CCCCc1ncc(C(=O)OC)n1Cc1ccc(-c2ccccc2NS(=O)(=O)NC(=O)c2ccccc2)cc1	1800 nM	20 nM
CCCc1nc(CC)c(C(=O)O)n1Cc1ccc(-c2ccccc2S(=O)(=O)NC(=O)c2ccccc2)cc1	7000 nM	1.7 nM
CCCCc1ncc(C(=O)OC)n1Cc1ccc(-c2ccccc2S(=O)(=O)NC(=O)C2CC2)cc1	8000 nM	39 nM
CCCCc1ncc(C(=O)OC)n1Cc1ccc(-c2ccccc2S(=O)(=O)NC(=O)c2ccccc2)cc1	> 1000 nM	21 nM
CCCc1nc(CC)c(C=O)n1Cc1ccc(-c2ccccc2-c2nnn[nH]2)cc1	> 30000 nM	8 nM
CCCc1nc(CC)c(C(=O)O)n1Cc1ccc(-c2ccccc2S(=O)(=O)NC(=O)C2CC2)cc1	> 10000 nM	4.3 nM
CCCc1nc(CC)c(C(=O)O)n1Cc1ccc(-c2ccccc2-c2nnn[nH]2)cc1	> 1000 nM	6 nM
CCCCCCCC(=O)NS(=O)(=O)Nc1ccccc1-c1ccc(Cn2c(C(=O)OC)cnc2CCCC)cc1	500 nM	1.9 nM
CCCCc1ncc(C(=O)OC)n1Cc1ccc(-c2ccccc2NS(=O)(=O)NC(=O)C2CC2)cc1	10000 nM	32 nM
CCCc1nc(CC)c(C(=O)OC)n1Cc1ccc(-c2ccccc2S(=O)(=O)NC(=O)c2ccccc2)cc1	1000 nM	0.5 nM
CCCCCCCC(=O)NS(=O)(=O)Nc1ccccc1-c1ccc(Cn2c(C(=O)O)cnc2CCCC)cc1	2300 nM	0.2 nM
